Experimental findings from patent US10766902B2, “Wee-1 inhibiting pyrazolopyrimidinone compounds” (ALMAC DISCOVERY LIMITED, priority 2016, dated 2020) are described below.

pIC50: −log10 of the molar value.

The target in this experiment is Wee-1 kinase (Homo sapiens (Human), UniProt P30291). Nature of the experiment: Measurement of Wee-1 kinase activity (ADP-Glo luminescence). The settings on record: read-out: Wee1 IC50. In kind it is biochemical. As to the method: Method 1: Measurement of Wee-1 Kinase Activity
Sequence of Wee-1 kinase (P30291 whole entry): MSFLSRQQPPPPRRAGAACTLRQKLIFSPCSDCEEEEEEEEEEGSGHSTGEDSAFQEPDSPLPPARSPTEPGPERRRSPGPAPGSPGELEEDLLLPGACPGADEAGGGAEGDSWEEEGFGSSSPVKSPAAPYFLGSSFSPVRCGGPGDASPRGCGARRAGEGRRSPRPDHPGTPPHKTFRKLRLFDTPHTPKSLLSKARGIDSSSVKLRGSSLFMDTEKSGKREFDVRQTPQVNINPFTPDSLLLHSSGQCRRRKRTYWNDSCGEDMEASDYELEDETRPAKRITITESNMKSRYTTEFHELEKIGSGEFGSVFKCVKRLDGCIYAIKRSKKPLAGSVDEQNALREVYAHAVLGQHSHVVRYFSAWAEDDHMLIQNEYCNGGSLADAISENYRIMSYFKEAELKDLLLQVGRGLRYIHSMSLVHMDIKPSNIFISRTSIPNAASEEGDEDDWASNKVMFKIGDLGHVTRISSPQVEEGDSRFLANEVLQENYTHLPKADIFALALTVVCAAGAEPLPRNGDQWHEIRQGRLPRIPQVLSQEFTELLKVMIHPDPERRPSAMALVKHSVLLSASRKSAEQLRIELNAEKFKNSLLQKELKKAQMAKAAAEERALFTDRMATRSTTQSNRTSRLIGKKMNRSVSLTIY
In the measurement of Wee-1 activity, a commercial peptide Poly(Lys Tyr(4:1)) hydrobromide was purchased from Sigma Aldrich and used as the substrate. Activated Wee-1 kinase was purchased from Invitrogen (PV3817) and an ADP-Glo luminescent kit was purchased from Promega.
All reactions took place in […] volumes in reaction buffer containing 40 mM Tris-HCl and 20 mM magnesium chloride, supplemented with 0.1 mg/mL bovine serum albumin and 2 mM DTT. Compounds were serially diluted in buffer and 5 μL of each concentration pipetted into a white 384 well plate (Sigma Aldrich M6186). A 5 μL aliquot of the Wee-1 enzyme was added to each well and the plate centrifuged for 1 min to ensure mixing of the enzyme and inhibitor.
The plate was incubated at room temperature for 30 minutes before the addition of 2.0 μg/mL of substrate and 30 μM ATP in a 5 μL aliquot. The plate was centrifuged for one minute and incubated for 1 h at RT.
15 μL of ADP-Glo stop reagent was added to each well to quench the reaction and deplete unconverted ATP. The plate was incubated for a further 40 min in the dark at RT.
30 μL of ADP-Glo kinase detection reagent was added to each well, converting ADP to ATP, catalysing the generation of luciferin by luciferase. The plate was shaken for 1 min, and incubated in the dark for an additional hour.
Luminescence from each well was detected using the Biotek Synergy4 HD plate reader and the percentage inhibition of kinase activity calculated for each inhibitor tested. Positive (kinase only) and negative (no kinase) controls were added to each plate to ensure specific interaction of kinase and inhibitor. The IC50 concentration for each inhibitor was calculated by plotting the percentage kinase inhibition against concentration of inhibitor and the curve generated by non-linear regression fitting.
On to `C=CCn1c(=O)c2cnc(Nc3ccc(N4CCOCC4)cc3)nc2n1-c1cccc(N=S(C)(C)=O)c1` [Example 31, 1-(3-{[Dimethyl(oxo)-λ^6-sulfanylidene]amino}phenyl)-6-{[4-(morpholin-4-yl)phenyl]amino}-2-(prop-2-en-1-yl)-1H,2H,3H-pyrazolo[3,4-d]pyrimidin-3-one], for which the pIC50 was 8.85. Turning to `C=CCn1c(=O)c2cnc(Nc3ccc(N4C[C@@H](C)O[C@@H](C)C4)cc3)nc2n1-c1cccc(N=S(C)(C)=O)n1` [Example 32, 1-(6-{[Dimethyl(oxo)-λ^6-sulfanylidene]amino}pyridin-2-yl)-6-{4-([(2S,6R)-2,6-dimethylmorpholin-4-yl]phenyl)amino}-2-(prop-2-en-1-yl)-1H,2H,3H-pyrazolo[3,4-d]pyrimidin-3-one], the pIC50 was 9.30. As for `C=CCn1c(=O)c2cnc(Nc3ccc(N4CCC(F)(F)CC4)cc3)nc2n1-c1cccc(N=S(C)(C)=O)n1` [Example 34, 1-(6-{[Dimethyl(oxo)-λ^6-sulfanylidene]amino}pyridin-2-yl)-6-{[4-(4,4-difluoropiperidin-1-yl)phenyl]amino}-2-(prop-2-en-1-yl)-1H,2H,3H-pyrazolo[3,4-d]pyrimidin-3-one], the figure is 8.34; as for `C=CCn1c(=O)c2cnc(Nc3cccc(N4CCOCC4)c3)nc2n1-c1cccc(N=S(C)(C)=O)n1` [Example 35, 1-(6-{[Dimethyl(oxo)-λ^6-sulfanylidene]amino}pyridin-2-yl)-6-{[3-(morpholin-4-yl)phenyl]amino}-2-(prop-2-en-1-yl)-1H,2H,3H-pyrazolo[3,4-d]pyrimidin-3-one], 9.22; as for `C=CCn1c(=O)c2cnc(Nc3ccc(N4CC5CCC(C4)O5)cc3)nc2n1-c1cccc(N=S(C)(C)=O)n1` [Example 36, 1-(6-{[Dimethyl(oxo)-λ^6-sulfanylidene]amino}pyridin-2-yl)-6-{[4-(8-oxa-3-azabicyclo[3.2.1]octan-3-yl)phenyl]amino}-2-(prop-2-en-1-yl)-1H,2H,3H-pyrazolo[3,4-d]pyrimidin-3-one], 10.00. Take `C=CCn1c(=O)c2cnc(Nc3cnn(C)c3)nc2n1-c1cccc(N=S(C)(C)=O)n1` [Example 37, 1-(6-{[Dimethyl(oxo)-λ^6-sulfanylidene]amino}pyridin-2-yl)-6-[(1-methyl-1H-pyrazol-4-yl)amino]-2-(prop-2-en-1-yl)-1H,2H,3H-pyrazolo[3,4-d]pyrimidin-3-one]: the pIC50 is 8.89. As for `CCCn1c(=O)c2cnc(Nc3ccc(N4CCOCC4)cc3)nc2n1-c1cccc(N=S(C)(C)=O)n1` [Example 38, 1-(6-{[Dimethyl(oxo)-λ^6-sulfanylidene]amino}pyridin-2-yl)-6-{[4-(morpholin-4-yl)phenyl]amino}-2-propyl-1H,2H,3H-pyrazolo[3,4-d]pyrimidin-3-one], the figure is 9.10; as for `CCCn1c(=O)c2cnc(Nc3ccc(N4CCOCC4)nc3)nc2n1-c1cccc(N=S(C)(C)=O)n1` [Example 39, 1-(6-{[Dimethyl(oxo)-λ^6-sulfanylidene]amino}pyridin-2-yl)-6-{[6-(morpholin-4-yl)pyridin-3-yl]amino}-2-propyl-1H,2H,3H-pyrazolo[3,4-d]pyrimidin-3-one], 8.77. `C=CCn1c(=O)c2cnc(Nc3ccc(F)cc3)nc2n1-c1cccc(N=S(C)(C)=O)n1` [Example 40, 1-(6-{[Dimethyl(oxo)-λ^6-sulfanylidene]amino}pyridin-2-yl)-6-[(4-fluorophenyl)amino]-2-(prop-2-en-1-yl)-1H,2H,3H-pyrazolo[3,4-d]pyrimidin-3-one]: the pIC50 is 9.70.

Take `CC(C)n1c(=O)c2cnc(Nc3ccc(F)cc3)nc2n1-c1cccc(N=S(C)(C)=O)n1` [Example 41, 1-(6-{[Dimethyl(oxo)-λ^6-sulfanylidene]amino}pyridin-2-yl)-6-[(4-fluorophenyl)amino]-2-(propan-2-yl)-1H,2H,3H-pyrazolo[3,4-d]pyrimidin-3-one]: the pIC50 is 8.31. Take `COc1ccc(Nc2ncc3c(=O)n(C(C)C)n(-c4cccc(N=S(C)(C)=O)n4)c3n2)cc1` [Example 42, 1-(6-{[Dimethyl(oxo)-λ^6-sulfanylidene]amino}pyridin-2-yl)-6-[(4-methoxyphenyl)amino]-2-(propan-2-yl)-1H,2H,3H-pyrazolo[3,4-d]pyrimidin-3-one]: the pIC50 was 8.96. Consider `CC(C)n1c(=O)c2cnc(Nc3ccc(N4CCOCC4)cc3)nc2n1-c1cccc(N=S(C)(C)=O)n1` [Example 43, 1-(6-{[Dimethyl(oxo)-λ^6-sulfanylidene]amino}pyridin-2-yl)-6-{[4-(morpholin-4-yl)phenyl]amino}-2-(propan-2-yl)-1H,2H,3H-pyrazolo[3,4-d]pyrimidin-3-one], for which the pIC50 is 9.40. Regarding `C=CCn1c(=O)c2cnc(Nc3ccc(N4CCOCC4)cc3)nc2n1-c1cncc(N=S(C)(C)=O)c1` [Example 44, 1-(5-{[Dimethyl(oxo)-λ^6-sulfanylidene]amino}pyridin-3-yl)-6-{[4-(morpholin-4-yl)phenyl]amino}-2-(prop-2-en-1-yl)-1H,2H,3H-pyrazolo[3,4-d]pyrimidin-3-one], the pIC50 was 7.69. In the case of `CC(C)n1c(=O)c2cnc(Nc3ccc(N4CCCNCC4)cc3)nc2n1-c1cccc(N=S(C)(C)=O)n1` [Example 46, 6-{[4-(1,4-Diazepan-1-yl)phenyl]amino}-1-(6-{[dimethyl(oxo)-λ^6-sulfanylidene]amino}pyridin-2-yl)-2-(propan-2-yl)-1H,2H,3H-pyrazolo[3,4-d]pyrimidin-3-one], the pIC50 is 9.05.

Consider `CC(C)n1c(=O)c2cnc(NC3CCC3)nc2n1-c1cccc(N=S(C)(C)=O)n1` [Example 47, 6-(Cyclobutylamino)-1-(6-{[dimethyl(oxo)-λ^6-sulfanylidene]amino}pyridin-2-yl)-2-(propan-2-yl)-1H,2H,3H-pyrazolo[3,4-d]pyrimidin-3-one], for which the pIC50 was 7.17. As to `CC(C)n1c(=O)c2cnc(Nc3ccc(N4CCNC(=O)C4)cc3)nc2n1-c1cccc(N=S(C)(C)=O)n1` [Example 48, 4-(4-{[1-(6-{[Dimethyl(oxo)-λ^6-sulfanylidene]amino}pyridin-2-yl)-3-oxo-2-(propan-2-yl)-1H,2H,3H-pyrazolo[3,4-d]pyrimidin-6-yl]amino}phenyl)piperazin-2-one], the pIC50 is 9.05. Take `CC(C)n1c(=O)c2cnc(Nc3ccc(N4CCN(CC(F)(F)F)CC4)cc3)nc2n1-c1cccc(N=S(C)(C)=O)n1` [Example 50, 1-(6-{[Dimethyl(oxo)-λ^6-sulfanylidene]amino}pyridin-2-yl)-2-(propan-2-yl)-6-({4-[4-(2,2,2-trifluoroethyl)piperazin-1-yl]phenyl}amino)-1H,2H,3H-pyrazolo[3,4-d]pyrimidin-3-one]: the pIC50 was 9.40. With `C=CCn1c(=O)c2cnc(Nc3ccc(N4CCOCC4)cc3)nc2n1-c1cncc(N=S(C)(C)=O)n1` [Example 51, 1-(6-{[Dimethyl(oxo)-λ^6-sulfanylidene]amino}pyrazin-2-yl)-6-{[4-(morpholin-4-yl)phenyl]amino}-2-(prop-2-en-1-yl)-1H,2H,3H-pyrazolo[3,4-d]pyrimidin-3-one], the pIC50 was 9.22. With `C=CCn1c(=O)c2cnc(Nc3ccc(N4CCOCC4)cc3)nc2n1-c1nccc(N=S(C)(C)=O)n1` [Example 52, 1-(4-{[Dimethyl(oxo)-λ^6-sulfanylidene]amino}pyrimidin-2-yl)-6-{[4-(morpholin-4-yl)phenyl]amino}-2-(prop-2-en-1-yl)-1H,2H,3H-pyrazolo[3,4-d]pyrimidin-3-one], the pIC50 is 9.10. `COC[C@@H]1CN(c2ccc(Nc3ncc4c(=O)n(C(C)C)n(-c5cccc(N=S(C)(C)=O)n5)c4n3)cc2)CCO1` [Example 53, 1-(6-{[Dimethyl(oxo)-λ^6-sulfanylidene]amino}pyridin-2-yl)-6-({4-[(2S)-2-(methoxymethyl)morpholin-4-yl]phenyl}amino)-2-(propan-2-yl)-1H,2H,3H-pyrazolo[3,4-d]pyrimidin-3-one]: the pIC50 was 9.30. With `CC(C)n1c(=O)c2cnc(Nc3ccc(F)cc3)nc2n1-c1cccc(N=S2(=O)CCCC2)n1` [Example 55, 6-[(4-Fluorophenyl)amino]-1-{6-[(1-oxo-1λ^6-thiolan-1-ylidene)amino]pyridin-2-yl}-2-(propan-2-yl)-1H,2H,3H-pyrazolo[3,4-d]pyrimidin-3-one], the pIC50 was 7.88. In the case of `CC(C)n1c(=O)c2cnc(Nc3cnn(C)c3)nc2n1-c1cccc(N=S2(=O)CCCC2)n1` [Example 56, 6-[(1-Methyl-1H-pyrazol-4-yl)amino]-1-{6-[(1-oxo-1λ^6-thiolan-1-ylidene)amino]pyridin-2-yl}-2-(propan-2-yl)-1H,2H,3H-pyrazolo[3,4-d]pyrimidin-3-one], the pIC50 was 7.73. Take `CC(C)n1c(=O)c2cnc(Nc3ccc(N(C)C)cc3)nc2n1-c1cccc(N=S(C)(C)=O)n1` [Example 58, 1-(6-{[Dimethyl(oxo)-λ^6-sulfanylidene]amino}pyridin-2-yl)-6-{[4-(dimethylamino)phenyl]amino}-2-(propan-2-yl)-1H,2H, 3H-pyrazolo[3,4-d]pyrimidin-3-one]: the pIC50 was 9.40.
